The record followed here is patent US6835714B1, “Heterocyclic compounds, intermediates thereof and elastase inhibitors” (Dainippon Pharmaceutical Co., Ltd., priority 1999, dated 2004).

Data set [1] can be described thus: Solubility in aqueous solvent. It counts as physicochemical. To be noted: 25° C. On the procedure:
Experiment 4: Solubility in Aqueous Solvent The solubility in an aqueous solvent of the present compound was measured, and the results as shown in Table 4 were obtained. The pH value in Table 4 is a pH value of a solution of the present compound in distilled water.

Data set [2] deals with pulmonary hemorrhage induced by human neutrophilic elastase. Description: Inhibitory activity on pulmonary hemorrhage induced by human neutrophilic elastase in hamsters. To be noted: hamster.
Description: When human neutrophilic elastase is administered intratracheally to a hamster, the hemorrhage is induced in the lung. Hemoglobin is detected in the broncho-alveolar lavage fluid, which is obtained by washing the lung via bronchi at a fixed period after the elastase administration. In order to examine how much this hemorrhage can be inhibited by the present compound, this experiment was carried out by measuring the concentration of this hemoglobin.
Hamsters (male Syrian strain, 8-10 weeks old) were grouped into the following three groups (5 animals per group), and the following treatment was carried out on each group.
(A) Vehicle-Treated Control Group (Non-Treatment Group):
The result of the measurement was counted as A.
(B) Human Neutrophilic Elastase-Treated Group (Without the Present Compound):
Human neutrophilc elastase (25 units, manufactured by Elastin Products, Inc.) was dissolved in physiological saline solution (0.2 ml), and the solution thus obtained was administered to the hamsters at the bronchial tube to induce the pulmonary hemorrhage. One hour after the administration of elastase, the concentration of hemoglobin in the broncho-alveolar lavage fluid was measured in the same manner as in Group (A). The result of the measurement was counted as B.
(C) Human Neutrophilic Elastase-Treated Group (with the Present Compound):
A fixed amount of the present compound was administered to the hamsters in the form of a phosphate-buffered saline solution (pH 7.4) in the manner as described below. Then, human neutrophilic elastase was administered to the hamsters in the same manner as the above. One hour after the administration of elastase, the concentration of hemoglobin in the washing of the broncho-alveolar lavage was measured in the same manner as in Group (A). The result of the measurement was counted as C.
Administration Method of the Present Compound:
The administration of the present compound to the hamsters was carried out by two kinds of methods. One of them is a method of intravenous bolus-administration of the solution containing the present compound 5 minutes prior to the elastase administration. Another method is a method of intravenous infusion of the solution containing the present compound for a period of 70 minutes beginning at 10 minutes prior to the elastase administration.
Data set [3] concerns the target T1, Human neutrophilic elastase (Homo sapiens, UniProt P08246).
T1 construct: purchased Sigma
T1 sequence (P08246 30-267): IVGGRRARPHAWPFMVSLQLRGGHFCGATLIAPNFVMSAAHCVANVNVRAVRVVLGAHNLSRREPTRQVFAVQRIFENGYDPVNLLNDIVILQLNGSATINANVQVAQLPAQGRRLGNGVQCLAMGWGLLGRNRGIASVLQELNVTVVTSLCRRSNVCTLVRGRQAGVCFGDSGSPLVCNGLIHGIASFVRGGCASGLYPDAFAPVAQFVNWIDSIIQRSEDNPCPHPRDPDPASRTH
Description: Human neutrophilic elastase inhibitory activity in vitro (fluorogenic substrate). To be noted: 37° C., pH 7.5. It is filed as biochemical. On the procedure:
Experiment 1: Human Neutrophilic Elastase Inhibitory Activity
In the present experiment, the inhibitory activity of the present invention against human neutrophilic elastase was studied in vitro.
The resulting solution (210 μl) was mixed with a 10^−8-10^−5 M solution of the present compound (40 μl), and the mixture was pre-incubated at 37° C. for 6 minutes. To this solution, 4 mM succinyl-alanyl-prolyl-alanine 4-methyl-coumaryl-7-amide (substrate solution, Peptide Institute Inc.) (50 μl) and distilled water (100 μl) were added, and the mixture was further reacted at 37° C. for 20 minutes. The concentration of the 7-amino-4-methylcoumarine thus obtained was measured fluorimetrically by monitoring at an excitation wave length of 380 nm and a fluorescent wave length of 460 nm.
The above “Bri j-35” means polyoxyethylene (23) lauryl ether, and the “HEPES” means N-(2-hydroxyethyl)piperazine-N′-(2-ethane-sulfonic acid).
In the following equation, A means the intensity of fluorescence when a present compound is added, and B means the intensity of fluorescence when a present compound is not added.
Inhibitory Rate (%)=(1−A/B)×100

The test system of the next data set is Std:ddy mice. It counts as in vivo. To be noted: intravenous administration 300 mg/kg, 24 hours after administration. From the text: Experiment 3: Acute Toxicity Test in Mice
Twenty-four hours after the administration, the animals were observed if dead or alive.
*: Number of survived animals/number of tested animals

The mark [4] stands for this setting: distilled water, pH of the solution given beside each value, read-out: Solubility, Water.
Where [5] appears, read: aqueous buffer, 0.1 M phosphate buffer pH 7.4, read-out: Solubility, 0.1 M Phosphate buffer (pH 7.4).
Setting [6] is: intravenous bolus administration 3 mg/kg, 5 minutes prior to elastase.
The mark [7] stands for this setting: intravenous bolus administration 10 mg/kg, 5 minutes prior to elastase.
Setting [8] is: intravenous infusion 1 mg/kg/hr for 70 minutes.
Where [9] appears, read: intravenous infusion 3 mg/kg/hr for 70 minutes.
The mark [10] stands for this setting: intravenous infusion 10 mg/kg/hr for 70 minutes.

Each structure is given as a SMILES string. Converted amounts (≈) assume the structure as drawn. Where two headings read alike, the source gives them in different places.

What is called solubility is the dissolved amount per volume that the medium holds. As to `CC(C)(C)C(=O)Oc1ccc(S(=O)(=O)Nc2ccccc2C(=O)NCC(=O)O)cc1` [Control (a), reference compound], the solubility in data set [1] (setting [4]) is 0.012 mg/mL (≈ 0.0276 mM); in data set [1] (setting [5]), roughly 20 mg/mL (≈ 46 mM). The Hemorrhage inhibitory rate in data set [2] (intravenous bolus administration 100 mg/kg (control dose row)) came out at 74%; in data set [2] (intravenous infusion 10 mg/kg/hr (control dose row)) it was 18%; in data set [2] (intravenous infusion 100 mg/kg/hr (control dose row)) it was 60%.

What is called IC50 is the concentration that gives 50% inhibition. As to `CC(C)[C@H](NC(=O)CN1C(=O)CN(CC(=O)O)C1=O)C(=O)N1CCC[C@H]1C(=O)N[C@H](C(=O)C(F)(F)F)C(C)C` [I-b-7, 2-(3-carboxymethyl-2,5-dioxo-1-imidazolidinyl)acetyl-L-valyl-N-[(1S)-3,3,3-trifluoro-1-isopropyl-2-oxopropyl]-L-prolinamide], half-maximal inhibition in data set [3] (IC50) was put at 82 nM. For the same compound, the Hemorrhage inhibitory rate in data set [2] (setting [6]) was 50%; in data set [2] (setting [7]), 64%; in data set [2] (setting [8]), 51%; in data set [2] (setting [9]) it was 53%; in data set [2] (setting [10]), 72%.

Take `CC(C)[C@H](NC(=O)[C@@H]1CCCN1C(=O)[C@@H](NC(=O)Cn1ccc(=O)n(CC(=O)O)c1=O)C(C)C)C(=O)c1nc2ccccc2o1` [I-b-2, 2-(3-carboxymethyl-2,4-dioxo-1-pyrimidinyl)acetyl-L-valyl-N-[(1S)-2-(2-benzoxazolyl)-1-isopropyl-2-oxoethyl]-L-prolinamide]: in the data set with Std:ddy mice, the “Livability (number of survived animals/number of tested animals)” value was 6/6. The solubility in data set [1] (setting [4]) was 5 mg/mL (≈ 8 mM); in data set [1] (setting [5]), greater than 100 mg/mL.

For `CC(C)[C@H](NC(=O)[C@@H]1CCCN1C(=O)[C@@H](NC(=O)Cn1ccc(=O)n(CC(=O)O)c1=O)C(C)C)C(=O)C(=O)NCc1ccccc1` [I-b-3, 2-(3-carboxymethyl-2,4-dioxo-1-pyrimidinyl)acetyl-L-valyl-N-[(1S)-3-benzylamino-1-isopropyl-2,3-dioxopropyl]-L-prolinamide], the “Livability (number of survived animals/number of tested animals)” value in the data set with Std:ddy mice is 6/6. The solubility in data set [1] (setting [4]) is 8.7 mg/mL (≈ 13.6 mM); in data set [1] (setting [5]), greater than 100 mg/mL.

For the compound `CC(C)[C@H](NC(=O)CN1CCN(CC(=O)O)C1=O)C(=O)N1CCC[C@H]1C(=O)N[C@H](C(=O)C(F)(F)F)C(C)C` [I-b-1, 2-(3-carboxymethyl-2-oxo-1-imidazolidinyl)acetyl-L-valyl-N-[(1S)-3,3,3-trifluoro-1-isopropyl-2-oxopropyl]-L-prolinamide], the “Livability (number of survived animals/number of tested animals)” value with Std:ddy mice is reported as 6/6. Further, the solubility in data set [1] (setting [4]) and in data set [1] (setting [5]) was greater than 1000 mg/mL each time.

Compound `CC(C)[C@H](NC(=O)[C@@H]1CCCN1C(=O)[C@@H](NC(=O)CC(=O)N1CCN(CC(=O)O)C(=O)C1)C(C)C)C(=O)c1nc2ccccc2o1` [I-b-10] yielded a half-maximal inhibitory concentration (IC50) in data set [3] of 45 nM. The Hemorrhage inhibitory rate in data set [2] (setting [6]) came out at 32%; in data set [2] (setting [7]), 76%; in data set [2] (setting [8]) it was 52%; in data set [2] (setting [9]) it was 69%; in data set [2] (setting [10]), 92%.
